Tests used:
Type in all cases: cell-based
human TLR7 = biological target: T1, human TLR7 (Homo sapiens, UniProt Q9NYK1); experiment: TLR7 inhibition reporter assay (HEK-Blue, SEAP); conditions: HEK-Blue cells overexpressing human TLR7, gardiquimod 7.5 μM, 22 hour incubation
T1 construct: host or cells: HEK-Blue cells
T1 sequence (Q9NYK1 27-1049): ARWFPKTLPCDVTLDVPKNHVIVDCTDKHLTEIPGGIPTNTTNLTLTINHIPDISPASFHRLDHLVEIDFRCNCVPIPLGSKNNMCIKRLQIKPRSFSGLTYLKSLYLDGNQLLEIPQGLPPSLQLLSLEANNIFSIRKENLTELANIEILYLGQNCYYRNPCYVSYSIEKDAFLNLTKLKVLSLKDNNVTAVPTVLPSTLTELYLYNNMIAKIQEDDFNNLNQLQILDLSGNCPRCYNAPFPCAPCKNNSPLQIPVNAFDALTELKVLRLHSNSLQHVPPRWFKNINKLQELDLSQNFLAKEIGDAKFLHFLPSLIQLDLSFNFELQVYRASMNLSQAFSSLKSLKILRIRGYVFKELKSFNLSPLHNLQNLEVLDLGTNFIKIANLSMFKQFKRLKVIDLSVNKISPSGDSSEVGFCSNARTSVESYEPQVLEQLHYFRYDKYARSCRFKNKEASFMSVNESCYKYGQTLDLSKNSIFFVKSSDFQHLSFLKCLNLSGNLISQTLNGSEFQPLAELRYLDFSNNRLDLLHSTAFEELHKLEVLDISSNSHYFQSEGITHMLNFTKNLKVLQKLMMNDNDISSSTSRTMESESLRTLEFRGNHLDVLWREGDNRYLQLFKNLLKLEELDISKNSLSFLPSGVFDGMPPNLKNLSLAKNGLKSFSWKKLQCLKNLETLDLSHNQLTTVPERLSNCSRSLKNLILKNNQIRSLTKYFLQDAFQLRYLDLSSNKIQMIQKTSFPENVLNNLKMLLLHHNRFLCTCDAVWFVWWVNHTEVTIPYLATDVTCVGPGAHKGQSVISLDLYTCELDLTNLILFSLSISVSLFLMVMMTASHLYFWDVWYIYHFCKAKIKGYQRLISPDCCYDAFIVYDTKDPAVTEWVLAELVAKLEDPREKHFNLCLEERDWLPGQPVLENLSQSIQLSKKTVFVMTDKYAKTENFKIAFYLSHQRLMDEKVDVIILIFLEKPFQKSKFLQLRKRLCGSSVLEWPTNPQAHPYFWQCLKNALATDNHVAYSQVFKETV
Procedure, shortened: (§1)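 Agonists used: gardiquimod 7.5 μM (TLR7), R848 15.9 μM (TLR8), ODN2006 5 nM (TLR9), added after 30 min room-temperature compound pre-treatment (0.05 nM–50 μM) of receptor-overexpressing HEK-Blue cells. SEAP reporter (NF-κB/AP-1 driven) read after 22 h at 37 °C; inhibition scaled between agonist+DMSO and reference-inhibitor wells.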

human TLR8 = biological target: T2, human TLR8 (Homo sapiens, UniProt Q9NR97); experiment: TLR8 inhibition reporter assay (HEK-Blue, SEAP); conditions: HEK-Blue cells overexpressing human TLR8, R848 15.9 μM, 22 hour incubation
T2 construct: host or cells: HEK-Blue cells
T2 sequence (Q9NR97 27-1041): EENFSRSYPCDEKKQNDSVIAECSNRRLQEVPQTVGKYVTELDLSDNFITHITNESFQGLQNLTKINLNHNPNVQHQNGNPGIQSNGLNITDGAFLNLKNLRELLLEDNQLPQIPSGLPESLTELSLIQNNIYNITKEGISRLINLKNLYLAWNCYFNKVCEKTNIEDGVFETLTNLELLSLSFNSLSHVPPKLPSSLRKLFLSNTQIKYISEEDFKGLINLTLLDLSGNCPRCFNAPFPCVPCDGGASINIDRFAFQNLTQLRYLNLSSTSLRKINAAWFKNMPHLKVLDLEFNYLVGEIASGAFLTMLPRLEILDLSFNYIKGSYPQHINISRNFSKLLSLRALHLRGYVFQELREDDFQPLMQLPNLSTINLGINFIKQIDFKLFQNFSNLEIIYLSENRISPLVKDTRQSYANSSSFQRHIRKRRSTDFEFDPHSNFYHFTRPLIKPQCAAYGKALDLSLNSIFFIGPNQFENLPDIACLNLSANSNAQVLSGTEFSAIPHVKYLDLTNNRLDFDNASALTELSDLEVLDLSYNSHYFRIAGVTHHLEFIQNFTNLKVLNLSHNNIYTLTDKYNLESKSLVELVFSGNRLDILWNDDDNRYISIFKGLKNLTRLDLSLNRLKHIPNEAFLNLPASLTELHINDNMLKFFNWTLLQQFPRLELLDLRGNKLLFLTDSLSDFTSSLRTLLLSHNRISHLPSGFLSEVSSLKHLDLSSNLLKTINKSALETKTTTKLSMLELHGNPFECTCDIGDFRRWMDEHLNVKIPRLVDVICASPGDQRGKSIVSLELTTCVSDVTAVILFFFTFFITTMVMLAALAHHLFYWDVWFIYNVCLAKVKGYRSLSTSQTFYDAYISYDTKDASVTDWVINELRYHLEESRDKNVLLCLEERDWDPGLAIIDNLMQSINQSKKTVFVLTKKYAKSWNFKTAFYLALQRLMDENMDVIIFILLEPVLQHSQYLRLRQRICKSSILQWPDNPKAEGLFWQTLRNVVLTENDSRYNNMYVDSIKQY
Procedure, shortened: as §1

human TLR9 = biological target: T3, human TLR9 (Homo sapiens, UniProt Q9NR96); experiment: TLR9 inhibition reporter assay (HEK-Blue, SEAP); conditions: HEK-Blue cells overexpressing human TLR9, ODN2006 5 nM, 22 hour incubation
T3 construct: host or cells: HEK-Blue cells
T3 sequence (Q9NR96 26-1032): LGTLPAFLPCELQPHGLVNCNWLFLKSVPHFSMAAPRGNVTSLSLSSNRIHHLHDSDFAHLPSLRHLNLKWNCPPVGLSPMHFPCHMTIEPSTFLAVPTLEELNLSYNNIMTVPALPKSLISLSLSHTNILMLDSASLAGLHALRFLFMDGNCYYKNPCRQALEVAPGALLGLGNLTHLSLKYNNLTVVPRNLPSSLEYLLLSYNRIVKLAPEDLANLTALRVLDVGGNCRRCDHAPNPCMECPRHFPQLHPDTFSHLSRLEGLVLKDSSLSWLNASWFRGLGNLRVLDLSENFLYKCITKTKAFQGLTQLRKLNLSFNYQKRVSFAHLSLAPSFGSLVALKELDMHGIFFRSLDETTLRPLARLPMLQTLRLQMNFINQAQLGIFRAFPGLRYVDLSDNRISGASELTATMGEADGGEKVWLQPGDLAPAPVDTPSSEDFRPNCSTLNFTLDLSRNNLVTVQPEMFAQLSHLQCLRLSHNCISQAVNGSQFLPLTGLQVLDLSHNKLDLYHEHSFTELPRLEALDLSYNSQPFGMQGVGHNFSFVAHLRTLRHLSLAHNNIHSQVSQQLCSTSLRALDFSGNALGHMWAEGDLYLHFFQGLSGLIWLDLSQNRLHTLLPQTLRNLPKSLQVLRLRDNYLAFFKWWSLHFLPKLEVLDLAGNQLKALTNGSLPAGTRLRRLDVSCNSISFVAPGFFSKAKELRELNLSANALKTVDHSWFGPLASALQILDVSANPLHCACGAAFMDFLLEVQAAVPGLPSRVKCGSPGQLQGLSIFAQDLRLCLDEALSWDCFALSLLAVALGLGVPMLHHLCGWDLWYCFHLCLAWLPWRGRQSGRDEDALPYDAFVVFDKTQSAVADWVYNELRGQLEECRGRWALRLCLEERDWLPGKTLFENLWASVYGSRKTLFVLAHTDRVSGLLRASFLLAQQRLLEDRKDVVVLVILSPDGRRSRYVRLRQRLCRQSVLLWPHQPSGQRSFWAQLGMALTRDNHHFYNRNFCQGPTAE
Procedure, shortened: as §1

Cc1c(-c2[nH]c3ccc(C4CCN(Cc5cn(C)nn5)CC4)cc3c2C(C)C)cn2cnnc2c1C [Example 83, 6-(3-isopropyl-5-(1-((1-methyl-1H-1,2,3-triazol-4-yl)methyl)piperidin-4-yl)-1H-indol-2-yl)-7,8-dimethyl-[1,2,4]triazolo[4,3-a]pyridine]
IC50 (human TLR7): 3.4 nM
IC50 (human TLR8): 7.2 nM
IC50 (human TLR9): 875 nM

Cc1c(-c2[nH]c3ccc(C4CC(C)N(CCS(C)(=O)=O)C(C)C4)cc3c2C(C)C)cn2cnnc2c1C (single isomer, unassigned) [Example 110, 6-(5-(2,6-dimethyl-1-(2-(methylsulfonyl)ethyl)piperidin-4-yl)-3-isopropyl-1H-indol-2-yl)-7,8-dimethyl-[1,2,4]triazolo[4,3-a]pyridine]
IC50 (human TLR7): 6.3 nM
IC50 (human TLR8): 19.4 nM
IC50 (human TLR9): 6630 nM

Cc1c(-c2[nH]c3ccc(C4CCN(C5CC(C)OC(C)C5)CC4)cc3c2C(C)C)cn2cnnc2c1C (stereo not drawn) [Example 92, 6-(5-(1-(2,6-dimethyltetrahydro-2H-pyran-4-yl)piperidin-4-yl)-3-isopropyl-1H-indol-2-yl)-7,8-dimethyl-[1,2,4]triazolo[4,3-a] pyridine]
IC50 (human TLR7): 5.6 nM
IC50 (human TLR8): 15.2 nM
IC50 (human TLR9): 3270 nM

1-(4-(3-isopropyl-2-(8-methoxy-5-methyl-[1,2,4]triazolo[4,3-a)pyridin-6-yl)-1H-indol-5-yl)piperidin-1-yl)-2-methylpropan-2-ol [Example 62]
IC50 (human TLR7): 1.2 nM
IC50 (human TLR8): 6.4 nM
IC50 (human TLR9): 381 nM

CNC(=O)CN1CCC(c2ccc3[nH]c(-c4ccc5nncn5c4C)c(C(C)C)c3c2)CC1 [Example 24, 2-(4-(3-isopropyl-2-(5-methyl-[1,2,4]triazolo[4,3-a]pyridin-6-yl)-1H-indol-5-yl)piperidin-1-yl)-N-methylacetamide]
IC50 (human TLR7): 40.8 nM
IC50 (human TLR8): 31.9 nM
IC50 (human TLR9): 8930 nM

Cc1c(-c2[nH]c3ccc(C4CC(C)N(CC5(C)COC5)C(C)C4)cc3c2C(C)C)cn2cnnc2c1C (single isomer, unassigned) [Example 113, 6-(5-(2,6-dimethyl-1-((3-methyloxetan-3-yl)methyl)piperidin-4-yl)-3-isopropyl-1H-indol-2-yl)-7,8-dimethyl-[1,2,4]triazolo[4,3-a]pyridine]
IC50 (human TLR7): 2.4 nM
IC50 (human TLR8): 59.6 nM
IC50 (human TLR9): 4830 nM

Cc1c(-c2[nH]c3ccc(C4CCN(C)CC4)cc3c2C(C)C)cn2cnnc2c1C [Example 98, 6-(3-isopropyl-5-(1-methylpiperidin-4-yl)-1H-indol-2-yl)-7,8-dimethyl-[1,2,4]triazolo[4,3-a]pyridine]
IC50 (human TLR7): 1 nM
IC50 (human TLR8): 12.1 nM
IC50 (human TLR9): 1790 nM

Cc1cc2nncn2cc1-c1[nH]c2ccc(C3CCN(Cc4ncn(C)n4)CC3)cc2c1C(C)C [Example 20, 6-(3-isopropyl-5-(1-((1-methyl-1H-1,2,4-triazol-3-yl)methyl)piperidin-4-yl)-1H-indol-2-yl)-7-methyl-[1,2,4] triazolo[4,3-a]pyridine]
IC50 (human TLR7): 69.6 nM
IC50 (human TLR8): 408 nM
IC50 (human TLR9): 19600 nM

Cc1ncc(CN2CCC(c3ccc4[nH]c(-c5cn6cnnc6c(C)c5C)c(C(C)C)c4c3)CC2)cn1 [Example 91, 6-(3-isopropyl-5-(1-((2-methylpyrimidin-5-yl)methyl)piperidin-4-yl)-1H-indol-2-yl)-7,8-dimethyl-[1,2,4]triazolo[4,3-a]pyridine]
IC50 (human TLR7): 1.5 nM
IC50 (human TLR8): 4.6 nM
IC50 (human TLR9): 1810 nM

Cc1cc(-c2[nH]c3ccc(C4CCN(Cc5ccn(C)n5)CC4)cc3c2C(C)C)cn2cnnc12 [Example 74, 6-(3-isopropyl-5-(1-((1-methyl-1H-pyrazol-3-yl)methyl)piperidin-4-yl)-1H-indol-2-yl)-8-methyl-[1,2,4]triazolo[4,3-a]pyridine]
IC50 (human TLR7): 1.2 nM
IC50 (human TLR8): 1.7 nM
IC50 (human TLR9): 908 nM

Cc1c(-c2[nH]c3ccc(C4CCN(CC#N)CC4)cc3c2C(C)C)cn2cnnc2c1C [Example 51, 2-(4-(2-(7,8-dimethyl-[1,2,4]triazolo[4,3-a]pyridin-6-yl)-3-isopropyl-1H-indol-5-yl)piperidin-1-yl)acetonitrile]
IC50 (human TLR7): 2.8 nM
IC50 (human TLR8): 31.8 nM
IC50 (human TLR9): 1000 nM

Cc1cc(-c2[nH]c3ccc(C4CCN(CCS(C)(=O)=O)CC4)cc3c2C(C)C)cn2c(C)nnc12 [Example 32, 6-(3-isopropyl-5-(1-(2-(methylsulfonyl)ethyl)piperidin-4-yl)-1H-indol-2-yl)-3,8-dimethyl-[1,2,4]triazolo[4,3-a]pyridine]
IC50 (human TLR7): 11.1 nM
IC50 (human TLR8): 2.1 nM
IC50 (human TLR9): 3670 nM

Cc1c(-c2[nH]c3ccc(C4CC(C)N(CC(=O)N(C)C)C(C)C4)cc3c2C(C)C)cn2cnnc2c1C (stereo not drawn) [Example 112, 2-(4-(2-(7,8-dimethyl-[1,2,4]triazolo[4,3-a]pyridin-6-yl)-3-isopropyl-1H-indol-5-yl)-2,6-dimethylpiperidin-1-yl)-N,N-dimethylacetamide]
IC50 (human TLR7): 20.6 nM
IC50 (human TLR8): 121 nM
IC50 (human TLR9): 7420 nM

From patent US11130756B2, “[1,2,4]Triazolo[4,3-A]pyridinyl substituted indole compounds” (BRISTOL-MYERS SQUIBB COMPANY, priority 2017, dated 2021)
